# From patent US7189858B2, “N-phenyl substituted carbamoyloxyalkyl-azolium derivatives” (Basilea Pharmaceutica AG, priority 1999, dated 2007)
# Where two headings read alike, the source gives them in different places.
# Columns and labels:
# [1] = format: in vitro ADME; conditions: human
# Solubility (Table 1) = conditions: solvent a = distilled water
# C. albicans CY1002 = experiment: Rat systemic mycosis, C. albicans CY1002; format: in vivo; conditions: for ED50: Candida albicans, CY1002, 336 h, read-out: Rat systemic mycosis ED50 on day 14, C. albicans CY1002
# Source text: (§1) Male Fisher rats, strain F344/DuCrj, were employed for experimental infection models such as systemic candidiasis, systemic aspergillosis and pulmonary aspergillosis model. Immunocompetent 4 weeks old rats were used for systemic candidiasis or systemic aspergillosis which occurred after infection with Candida albicans conidia of 5×10^6/rat or with Aspergillus fumigatus conidia of 6×10^5/rat via tail vein. Otherwise for pulmonary aspergillosis model, rats had been immunosuppressed with cortisone acetate treatments prior to infection with 2×10^5/rat intratrachially. Treatments were given twice on the first day and once daily on following 4 days both for systemic and pulmonary aspergillosis (Ib.i.+4q.d.), for systemic candidiasis rats were treated at 0, 4, 24, and 48 h after infection (Ib.i.d.+2q.d.). Effective dose 50% (ED50) values were determined on day 14 after infection.
# C. tropicalis CY5042 = experiment: Rat systemic mycosis, C. tropicalis CY5042; format: in vivo; conditions: for ED50: Candida tropicalis, CY5042, 336 h, read-out: Rat systemic mycosis ED50 on day 14, C. tropicalis CY5042
# C. albicans CY3003 = experiment: Rat systemic mycosis, C. albicans CY3003; format: in vivo; conditions: for ED50: Candida albicans, CY3003, 336 h, read-out: Rat systemic mycosis ED50 on day 14, C. albicans CY3003
# Source text: as §1
# C. parapsilosis KULM219C = experiment: Rat systemic mycosis, C. parapsilosis KULM219C; format: in vivo; conditions: for ED50: Lodderomyces parapsilosis, KULM219C, 336 h, read-out: Rat systemic mycosis ED50 on day 14, C. parapsilosis KULM219C
# A. fumigatus CF1003 = experiment: Rat systemic mycosis, A. fumigatus CF1003; format: in vivo; conditions: for ED50: Aspergillus fumigatus, CF1003, 336 h, read-out: Rat systemic mycosis ED50 on day 14, A. fumigatus CF1003
# Source text: as §1
# Candida albicans = experiment: Rat systemic candidiasis model (Fluconazole resistance); format: in vivo; conditions: day 14 after infection
# Source text: as §1
# [2] = system: FCZ^R - C. albicans UTHS93-2067; experiment: Rat systemic mycosis, FCZ^R C. albicans UTHS93-2067; format: in vivo; conditions: for ED50: Candida albicans, 336 h, read-out: Rat systemic mycosis ED50 on day 14, FCZ^R - C. albicans UTHS93-2067
# Source text: as §1
# [3] = rat
# Aspergillus fumigatus = experiment: Rat systemic aspergillosis model; format: in vivo; conditions: day 14 after infection
# Source text: as §1
smiles,measurement,setting,value
"CNCC(=O)OCc1ccc(Cl)cc1N(C)C(=O)OC(C)[n+]1cnn(C[C@](O)(c2cc(F)ccc2F)[C@@H](C)c2nc(-c3ccc(C#N)cc3)cs2)c1.Cl.[I-] (stereo partly drawn) [Example 7.10., 1-[[N-methyl-N-2-(methylamino)acetoxymethyl-5-chloro-phenyl]carbamoyloxy]ethyl-1-[(2R,3R)-2-(2,5-difluorophenyl)-2-hydroxy-3-[4-(4-cyanophenyl)thiazol-2-yl]butyl]-1H-[1,2,4]triazol-4-ium iodide hydrochloride]","Conversion (half-life) to (2R,3R)-3-[4-(4-cyanophenyl)thiazol-2-yl)]-2-(2,5-difluorophenyl)-1-(1H-1,2,4-triazol-1-yl)-butan-2-ol (u) in plasma",[1],3 min in human plasma
"CNCC(=O)OCc1cc(F)ccc1N(C)C(=O)OC(C)[n+]1cnn(C[C@](O)(c2cc(F)ccc2F)[C@@H](C)c2nc(-c3ccc(C#N)cc3)cs2)c1.Cl.[I-] (stereo partly drawn) [Example 7.4., 1-[[N-methyl-N-2-(methylamino)acetoxymethyl-4-fluoro-phenyl]carbamoyloxy]ethyl-1-[(2R,3R)-2-(2,5-difluorophenyl)-2-hydroxy-3-[4-(4-cyanophenyl)thiazol-2-yl]butyl]-1H-[1,2,4]triazol-4-ium iodide hydrochloride]","Conversion (half-life) to (2R,3R)-3-[4-(4-cyanophenyl)thiazol-2-yl)]-2-(2,5-difluorophenyl)-1-(1H-1,2,4-triazol-1-yl)-butan-2-ol (u) in plasma",[1],2 min in human plasma
"CC(C)NCc1ccccc1N(C)C(=O)OC(C)[n+]1cnn(C[C@](O)(c2cc(F)ccc2F)[C@@H](C)c2nc(-c3ccc(C#N)cc3)cs2)c1.Cl.[Cl-] (stereo partly drawn) [Example 6, 1-[[N-methyl-N-2-(isopropylaminomethyl)phenyl]carbamoyloxy]ethyl-1-[(2R,3R)-2-(2,5-difluorophenyl)-2-hydroxy-3-[4-(4-cyanophenyl)thiazol-2-yl]butyl]-1H-[1,2,4]triazol-4-ium chloride hydrochloride]",Solubility,Solubility (Table 1),>10000 µg/mL
"CNCC(=O)OCc1cc(F)c(F)cc1N(C)C(=O)OC(C)[n+]1cnn(C[C@](O)(c2cc(F)ccc2F)[C@@H](C)c2nc(-c3ccc(C#N)cc3)cs2)c1.Cl.[Cl-] (stereo partly drawn) [Example 7.3., 1-[[N-methyl-N-2-(methylamino)acetoxymethyl-4,5-difluorophenyl]carbamoyloxy]ethyl-1-[(2R,3R)-2-(2,5-difluorophenyl)-2-hydroxy-3-[4-(4-cyanophenyl)thiazol-2-yl]butyl]-1H-[1,2,4]triazol-4-ium chloride hydrochloride]","Conversion (half-life) to (2R,3R)-3-[4-(4-cyanophenyl)thiazol-2-yl)]-2-(2,5-difluorophenyl)-1-(1H-1,2,4-triazol-1-yl)-butan-2-ol (u) in plasma",[1],6 min in human plasma
"CNCC(=O)OCc1c(F)cccc1N(C)C(=O)OC(C)[n+]1cnn(C[C@](O)(c2cc(F)ccc2F)[C@@H](C)c2nc(-c3ccc(C#N)cc3)cs2)c1.Cl.[Cl-] (stereo partly drawn) [Example 7.13., 1-[[N-methyl-N-2-(methylamino)acetoxymethyl-3-fluoro-phenyl]carbamoyloxy]ethyl-1-[(2R,3R)-2-(2,5-difluorophenyl)-2-hydroxy-3-[4-(4-cyanophenyl)thiazol-2-yl]butyl]-1H-[1,2,4]triazol-4-ium chloride hydrochloride]","Conversion (half-life) to (2R,3R)-3-[4-(4-cyanophenyl)thiazol-2-yl)]-2-(2,5-difluorophenyl)-1-(1H-1,2,4-triazol-1-yl)-butan-2-ol (u) in plasma",[1],2 min in human plasma
"OC(Cn1cncn1)(Cn1cncn1)c1ccc(F)cc1F [Fluconazole, reference compound]",ED50,C. albicans CY1002; PO.,1.9 µmol/kg
same,ED50,C. tropicalis CY5042; PO.,2 µmol/kg
same,ED50,C. albicans CY3003; PO.,1 µmol/kg
same,ED50,C. parapsilosis KULM219C; PO.,17 µmol/kg
same,ED50,A. fumigatus CF1003; PO.,94 µmol/kg
same,ED50,"Candida albicans; Candida albicans, po, 336 h, p.o.",21.8 µmol/kg
same,ED50,[2]; PO.,8.1 µmol/kg
"CC(=O)OCc1ccccc1N(C)C(=O)OC[n+]1cnn(C[C@](O)(c2cc(F)ccc2F)[C@@H](C)c2nc(-c3ccc(C#N)cc3)cs2)c1.[Cl-] [Example 5, [[N-methyl-N-2-(acetoxymethyl)phenyl]carbamoyloxy]methyl-1-[(2R,3R)-2-(2,5-difluorophenyl)-2-hydroxy-3-[4-(4-cyanophenyl)thiazol-2-yl]butyl]-1H-[1,2,4]triazol-4-ium chloride]","Conversion (half-life) to (2R,3R)-3-[4-(4-cyanophenyl)thiazol-2-yl)]-2-(2,5-difluorophenyl)-1-(1H-1,2,4-triazol-1-yl)-butan-2-ol (u) in plasma",[3],<2 min in rat plasma
"CCC(C)n1ncn(-c2ccc(N3CCN(c4ccc(OCC5COC(Cn6cncn6)(c6ccc(Cl)cc6Cl)O5)cc4)CC3)cc2)c1=O (stereo not shown) [Itraconazole, 4-[4-[4-[4-[[2-(2,4-Dichlorophenyl)-2-(1H-1,2,4-triazol-1-ylmethyl)-1,3-dioxolan-4-yl]methoxy]phenyl]-1-piperazinyl]phenyl]-2,4-dihydro-2-(1-methylpropyl)-3H-[1,2,4]triazol-3-one, reference compound]",ED50,C. albicans CY1002; PO.,4.7 µmol/kg
same,ED50,C. tropicalis CY5042; PO.,2 µmol/kg
same,ED50,"Aspergillus fumigatus; Aspergillus fumigatus, po, 336 h, p.o.",4.9 µmol/kg
same,ED50,C. albicans CY3003; PO.,2.3 µmol/kg
same,ED50,C. parapsilosis KULM219C; PO.,20 µmol/kg
same,ED50,A. fumigatus CF1003; PO.,8.9 µmol/kg
same,ED50,[2]; PO.,4.2 µmol/kg
"CNCC(=O)OCc1cccnc1N(C)C(=O)OC(C)[n+]1cnn(C[C@](O)(c2cc(F)ccc2F)[C@@H](C)c2nc(-c3ccc(C#N)cc3)cs2)c1.Cl.[Cl-] (stereo partly drawn) [Example 7, 1-[[N-methyl-N-3-[(methylamino)acetoxymethyl]pyridin-2-yl]carbamoyloxy)ethyl-1-[(2R,3R)-2-(2,5-difluorophenyl)-2-hydroxy-3-[4-(4-cyanophenyl)thiazol-2-yl]butyl]-1H-[1,2,4]triazol-4-ium chloride hydrochloride]","Rat systemic mycosis ED50 on day 14, C. albicans CY1002",C. albicans CY1002; I.V.,4 µmol/kg
same,"Rat systemic mycosis ED50 on day 14, C. albicans CY1002",C. albicans CY1002; PO.,4 µmol/kg
same,"Rat systemic mycosis ED50 on day 14, C. tropicalis CY5042",C. tropicalis CY5042; I.V.,1 µmol/kg
same,"Rat systemic mycosis ED50 on day 14, C. tropicalis CY5042",C. tropicalis CY5042; PO.,1 µmol/kg
same,"ED50, Systemic aspergillosis",Aspergillus fumigatus; i.v.,13.5 µmol/kg
same,"ED50, Systemic aspergillosis",Aspergillus fumigatus; p.o.,8.8 µmol/kg
same,"Rat systemic mycosis ED50 on day 14, C. albicans CY3003",C. albicans CY3003; I.V.,1.6 µmol/kg
same,"Rat systemic mycosis ED50 on day 14, C. albicans CY3003",C. albicans CY3003; PO.,2.5 µmol/kg
same,"Rat systemic mycosis ED50 on day 14, C. parapsilosis KULM219C",C. parapsilosis KULM219C; I.V.,7.6 µmol/kg
same,"Rat systemic mycosis ED50 on day 14, C. parapsilosis KULM219C",C. parapsilosis KULM219C; PO.,6.5 µmol/kg
same,"Conversion (half-life) to (2R,3R)-3-[4-(4-cyanophenyl)thiazol-2-yl)]-2-(2,5-difluorophenyl)-1-(1H-1,2,4-triazol-1-yl)-butan-2-ol (u) in plasma",[1],<2 min in human plasma
same,"Rat systemic mycosis ED50 on day 14, A. fumigatus CF1003",A. fumigatus CF1003; I.V.,11 µmol/kg
same,"Rat systemic mycosis ED50 on day 14, A. fumigatus CF1003",A. fumigatus CF1003; PO.,9 µmol/kg
same,"ED50, Systemic Fluconazole resistance candidiasis",Candida albicans; i.v.,13.3 µmol/kg
same,"ED50, Systemic Fluconazole resistance candidiasis",Candida albicans; p.o.,14.1 µmol/kg
same,"Rat systemic mycosis ED50 on day 14, FCZ^R - C. albicans UTHS93-2067",[2]; I.V.,2.8 µmol/kg
same,"Rat systemic mycosis ED50 on day 14, FCZ^R - C. albicans UTHS93-2067",[2]; PO.,7 µmol/kg
